From patent US20250134953A1, “COMPOSITIONS FOR TREATING AUTOIMMUNE ARTHRITIS” (DEVINTEC SAGL, priority 2021, published 2025)

What was measured:
[1] = test system: collagen antibody-induced arthritis (CAIA) mice; experiment: Radiological score (X-ray) of ankle joints in CAIA mice; format: in vivo, Male BALB/c mice; conditions: oral gavage, score 0-3
Protocol: (§1) Each compound (140 mg of pea protein; 100 mg of Acacia gum; and 100 mg of alpha-Glucooligosaccharide) were administered in a PBS solution via oral gavage daily, from day 0 to day 14 in mice of Group A, and from day 4 to day 14 in mice of Group B. Prednisolone was administered via oral gavage at the doses of 0.05, 0.2 and 1 mg/kg as disclosed in Oosten, L., Helsen, M., Saxne, T. et al. “Synergistic protection against cartilage destruction by low dose prednisolone and interleukin-10 in established murine collagen arthritis”. Inflamm. Res. 48, 48-55, 1999.
(§2) The animals were divided into the following two groups: • Group A: the animals were administered with the therapeutic compounds from day 0 to day 14. • Group B: the animals were administered with the therapeutic compounds from day 4 to day 14.
(§3) Sham+vehicle (negative control) (n=3) • 2. Sham+prednisolone 0.05 mg/kg (n=3) • 3. […] Sham+prednisolone 0.2 mg/kg (n=3) • 5. […] Sham+prednisolone 1 mg/kg (n=3) • 7. […] Sham+MD (n=3) • 9. CAIA+vehicle (positive control) (n=6) • 10. CAIA+prednisolone 0.05 mg/kg (n=6) • 11. […] CAIA+prednisolone 0.2 mg/kg (n=6) • 13. […] CAIA+prednisolone 1 mg/kg (n=6) • 15. […] CAIA+140 mg Pea Protein (n=6) • 18. […] CAIA+200 mg Pea Protein (n=6) • 20. […] CAIA+70 mg Pea Protein (n=6)
Radiological analysis was carried out using X-ray technique, and radio-logical scoring (level: 0=Normal; 1=Slight; 2=Moderate and 3=Severe) was calculated considering different parameters such as periosteal reaction/hypertrophy, bone erosion, soft tissue swelling, narrowed joint space and osteoporosis in the ankle-joints, as described in Balkrishna A, et al., “Herbo-mineral formulation ‘Ashwashila’ attenuates rheumatoid arthritis symptoms in collagen-antibody-induced arthritis (CAIA) mice model” Sci Rep., 2019; vol. 9(1); pp. 8025.

[2] = test system: collagen antibody-induced arthritis (CAIA) mice; experiment: Histological score of ankle joints (hind legs) in CAIA mice; format: in vivo, Male BALB/c mice; conditions: oral gavage
Protocol: as §1, §2, §3
Histological analysis was carried out as previously described (Balkrishna A, et al., supra; Mengdi et al., “A novel dexamethasone-loaded liposome alleviates rheumatoid arthritis in rats”; International Journal of Pharmaceutics; 2018; vol. 540(1-2); pp. 57-64) and indicating score analysis of the RA disease-associated lesions such as the moderately enlarged synovial membrane, hyperplastic synovium, the presence of inflammation and bone and cartilage erosion on a 0-4 scale as follows: 0=normal; 1=mild, slight swelling; 2=moderate swelling; 3=severe swelling; 4=maximally inflamed; […].
Histopathological analysis of the CAIA mice hind legs was performed following fourteen days of treatment. Ankle-joints analysis of the CAIA mice was performed indicating the development of arthritis disease-associated lesions such as the moderately enlarged synovial membrane, hyperplastic synovium, increased synovial vascularity, the presence of inflammation and, bone and cartilage erosion.

[3] = test system: IL-17, IL-6, IL-23, TNF-α and IL-1β; conditions: CAIA mice; prednisolone at high doses (group 14); combination groups 13 and 15; FIGS. 1-2
Protocol: The mAb cocktail contained three mAb (F10, A2, D8) of type IgG2a and one mAb (D1) of type IgG2b in equal amounts, directed to bovine CII (Arthrogen-CIA, Chondrex) suspended in sterile PBS. All WT mice received intraperitnoeal i.p. injections of 8 mg/mouse of Arthrogen on day 0 and 50 ug/mouse of LPS from E. coli strain 0111B4 (Sigma, T 3382) on day 3 to synchronize the development of arthritis. All mice started to develop arthritis at day 4 and were sacrificed at day 14.
Animals from group A and B were separated in some the following subgroups, depending on the assay, and administered with the indicated compounds or combination of compounds: • 1. Sham+vehicle (negative control) (n=3) • 2. Sham+prednisolone 0.05 mg/kg (n=3) • 3. Sham+prednisolone 0.05 mg/kg +MD (50 mg acacia gum (AG) +70 mg pea protein (PP)+50 mg alpha-GOS) (n=3) • 4. Sham+prednisolone 0.2 mg/kg (n=3) • 5. Sham+prednisolone 0.2 mg/kg+MD (50 mg AG+70 mg PP+50 mg alpha-GOS) (n=3) • 6. Sham+prednisolone 1 mg/kg (n=3) • 7. Sham+prednisolone 1 mg/kg+MD (50 mg AG+70 mg PP+50 mg alpha-GOS) (n=3) • 8. Sham+MD (n=3) • 9. CAIA+vehicle (positive control) (n=6) • 10. CAIA+prednisolone 0.05 mg/kg (n=6) • 11. CAIA+prednisolone 0.05 mg/kg+MD (50 mg AG+70 mg PP+50 mg alpha-GOS) (n=6) • 12. CAIA+prednisolone 0.2 mg/kg (n=6) • 13. CAIA+prednisolone 0.2 mg/kg (n=6)+MD (50 mg AG+70 mg PP+50 mg alpha-GOS) (n=6) • 14. […]

[4] = group A (dosed day 0 to day 14), subgroup 10A: prednisolone 0.05 mg/kg
[5] = group A (dosed day 0 to day 14), subgroup 12A: prednisolone 0.2 mg/kg
[6] = group A (dosed day 0 to day 14), subgroup 14A: prednisolone 1 mg/kg
[7] = group B (dosed day 4 to day 14), subgroup 10B: prednisolone 0.05 mg/kg
[8] = group B (dosed day 4 to day 14), subgroup 12B: prednisolone 0.2 mg/kg
[9] = group B (dosed day 4 to day 14), subgroup 14B: prednisolone 1 mg/kg

In the case of C[C@]12C=CC(=O)C=C1CC[C@@H]1[C@@H]2[C@@H](O)C[C@@]2(C)[C@H]1CC[C@]2(O)C(=O)CO [prednisolone], the “Radiological score, MEAN” value [1, 4] is reported as 2.3, the “Radiological score, MEAN” value [1, 5] is reported as 1.8 and the “Radiological score, MEAN” value [1, 6] is reported as 1.7. For the same compound, the “Radiological score, MEAN” value [1, 7] was 2.6, the “Radiological score, MEAN” value [1, 8] was 1.9 and the “Radiological score, MEAN” value [1, 9] was 1.8. For the same compound, the “Histological score, MEAN” value [2, 4] was 1.8, the “Histological score, MEAN” value [2, 5] was 1.3 and the “Histological score, MEAN” value [2, 6] was 1.1. For the same compound, the “Histological score, MEAN” value [2, 7] was 2.4, the “Histological score, MEAN” value [2, 8] was 1.8 and the “Histological score, MEAN” value [2, 9] was 1.9. The “cytokine levels (IL-17, IL-6, IL-23, TNF-α and IL-1β) in arthritic hind paws” value [3] was “significantly reduced the expressions of the aforementioned cytokines”.
